Source: patent US20030215462A1, “Use of UGT inhibitors to increase bioavailability” (priority 2001, published 2003)
Where “and” joins values, the source holds several entries; their conditions need not be identical. Equal entries are not always repeated. Where two headings read alike, the source gives them in different places. Each block holds one compound with its values, some of them ahead of it.

What was measured:
[1] = test system: T1, UGT enzymes of human liver microsomes; test: Inhibition of 7-HFC glucuronidation in human liver microsomes; format: biochemical; conditions: for % of control metabolism (SD, n = 3), 7-HFC glucuronidation / IC50: 7-HFC 50 μM, 15 min; for % of control metabolism (SD, n = 3), 7-HFC glucuronidation: human liver microsomes 100 μg/ml; for IC50: 1 mM UDPGA
T1 construct: percentage of control metabolism, 7-HFC glucuronidation; percentage of control metabolism, 7-HFC glucuronidation

[2] = test system: UGT enzymes of human liver microsomes; test: Inhibition of raloxifene glucuronidation (G1, G2) in human liver microsomes; format: biochemical
Description: Compounds were eluted using a binary solvent gradient system. […] Solvent B was methanol. […] Detection was at 280 nm.

[3] = G1, inhibitor 500 μM, raloxifene 50 μM, human liver microsomes 250 μg/ml, 15 min
[4] = G2, inhibitor 500 μM, raloxifene 50 μM, human liver microsomes 250 μg/ml, 15 min
[5] = G1, inhibitor 100 μM, raloxifene 50 μM, human liver microsomes 250 μg/ml, 15 min
[6] = G2, inhibitor 100 μM, raloxifene 50 μM, human liver microsomes 250 μg/ml, 15 min

- % of control metabolism (SD, n = 3), 7-HFC glucuronidation ([1]; inhibitor 500 μM): 94 (1) %
- % of control metabolism (SD, n = 3), raloxifene glucuronide G1 [2, 3]: 138 (6) %
- % of control metabolism (SD, n = 3), raloxifene glucuronide G2 [2, 4]: 132 (5) %
Structure (SMILES): CN(C)CCC=C1c2ccccc2CCc2ccccc21 [Amitriptyline, reference compound]

- % of control metabolism (SD, n = 3), 7-HFC glucuronidation ([1]; inhibitor 500 μM): 92 (1) %
Structure (SMILES): CCCC(=O)OCC(O)C1OC(=O)C(OC(=O)CCC)=C1O (stereo not drawn) [Ascorbyl-2,6-dibutyrate]

- % of control metabolism (SD, n = 3), 7-HFC glucuronidation ([1]; inhibitor 500 μM): 87 (1) %
Structure (SMILES): OCC=Cc1ccccc1 [Cinnamyl alcohol]

- % of control metabolism (SD, n = 3), 7-HFC glucuronidation ([1]; inhibitor 500 μM): 87 (0) %
Structure (SMILES): COc1cc(/C=C/CO)ccc1O [Coniferol]

- % of control metabolism (SD, n = 3), 7-HFC glucuronidation ([1]; inhibitor 500 μM): 84 (2) %
- % of control metabolism (SD, n = 3), raloxifene glucuronide G1 [2, 3]: 46 (3) %
- % of control metabolism (SD, n = 3), raloxifene glucuronide G2 [2, 4]: 60 (3) %
Structure (SMILES): C[C@]12CC[C@@H]3c4ccc(O)cc4CC[C@H]3[C@@H]1C[C@@H](O)[C@@H]2O [Estriol]

- % of control metabolism (SD, n = 3), 7-HFC glucuronidation ([1]; inhibitor 500 μM): 89 (3) %
Structure (SMILES): CCCCCCCCCCCCCCCC(=O)OCC [Ethyl palmitate]

- % of control metabolism (SD, n = 3), 7-HFC glucuronidation ([1]; inhibitor 500 μM): 117 (2) %
Structure (SMILES): O=C(O)c1cc(O)c(O)c(O)c1 [Gallic acid]

- IC50 [1]: 100 µM
- percentage of control metabolism, 7-HFC glucuronidation ([1]; inhibitor 25 μM): 92 (3) %
- % of control metabolism (SD, n = 3), 7-HFC glucuronidation ([1]; inhibitor 25 μM): 92 (3) %
- percentage of control metabolism, 7-HFC glucuronidation ([1]; inhibitor 50 μM): 76 (2) %
- % of control metabolism (SD, n = 3), 7-HFC glucuronidation ([1]; inhibitor 50 μM): 76 (2) %
- percentage of control metabolism, 7-HFC glucuronidation ([1]; inhibitor 100 μM): 43 (2) % and 49 (1) %
- % of control metabolism (SD, n = 3), 7-HFC glucuronidation ([1]; inhibitor 100 μM): 43 (2) % and 49 (1) %
- percentage of control metabolism, 7-HFC glucuronidation ([1]; inhibitor 200 μM): 22 (1) %
- % of control metabolism (SD, n = 3), 7-HFC glucuronidation ([1]; inhibitor 200 μM): 22 (1) %
- percentage of control metabolism, 7-HFC glucuronidation ([1]; inhibitor 500 μM): 18 (6) %
- % of control metabolism (SD, n = 3), 7-HFC glucuronidation ([1]; inhibitor 500 μM): 18 (6) %
- % of control metabolism (SD, n = 3), raloxifene glucuronide G1 [2, 5]: 64 (4) %
- % of control metabolism (SD, n = 3), raloxifene glucuronide G1 [2, 3]: 7 (0) %
- % of control metabolism (SD, n = 3), raloxifene glucuronide G2 [2, 6]: 85 (3) %
- % of control metabolism (SD, n = 3), raloxifene glucuronide G2 [2, 4]: 37 (1) %
Structure (SMILES): CCCCCCCCCCCCOC(=O)c1cc(O)c(O)c(O)c1 [Lauryl gallate]

- % of control metabolism (SD, n = 3), 7-HFC glucuronidation ([1]; inhibitor 500 μM): 81 (3) %
- % of control metabolism (SD, n = 3), raloxifene glucuronide G1 [2, 3]: 75 (2) %
- % of control metabolism (SD, n = 3), raloxifene glucuronide G2 [2, 4]: 80 (2) %
Structure (SMILES): COc1ccc2cc(CCC(C)=O)ccc2c1 [Nabumetone]

- % of control metabolism (SD, n = 3), 7-HFC glucuronidation ([1]; inhibitor 500 μM): 71 (2) %
Structure (SMILES): CC(C)=CCC/C(C)=C\CO [Nerol]

- % of control metabolism (SD, n = 3), 7-HFC glucuronidation ([1]; inhibitor 100 μM): 90 (3) %
- % of control metabolism (SD, n = 3), 7-HFC glucuronidation ([1]; inhibitor 200 μM): 82 (1) %
- % of control metabolism (SD, n = 3), 7-HFC glucuronidation ([1]; inhibitor 500 μM): 81 (4) %
Structure (SMILES): CCCCCCCCCCCCCCCC(=O)OC/C=C(C)/C=C/C=C(C)/C=C/C1=C(C)CCCC1(C)C [Retinol palmitate]

- % of control metabolism (SD, n = 3), 7-HFC glucuronidation ([1]; inhibitor 100 μM): 72 (1) %
- % of control metabolism (SD, n = 3), 7-HFC glucuronidation ([1]; inhibitor 200 μM): 60 (3) %
- % of control metabolism (SD, n = 3), 7-HFC glucuronidation ([1]; inhibitor 500 μM): 48 (1) %
Structure (SMILES): CC(=O)OC/C=C(C)/C=C/C=C(C)/C=C/C1=C(C)CCCC1(C)C [Retinyl acetate]

- % of control metabolism (SD, n = 3), 7-HFC glucuronidation ([1]; inhibitor 500 μM): 85 (0) %
- % of control metabolism (SD, n = 3), raloxifene glucuronide G1 [2, 5]: 76 (6) %
- % of control metabolism (SD, n = 3), raloxifene glucuronide G1 [2, 3]: 25 (3) %
- % of control metabolism (SD, n = 3), raloxifene glucuronide G2 [2, 6]: 79 (4) %
- % of control metabolism (SD, n = 3), raloxifene glucuronide G2 [2, 4]: 44 (2) %
Structure (SMILES): CC1=C(CC(=O)O)c2cc(F)ccc2/C1=C\c1ccc([S+](C)[O-])cc1 (stereo not drawn) [Sulindac]

- % of control metabolism (SD, n = 3), 7-HFC glucuronidation ([1]; inhibitor 500 μM): 78 (2) %
Structure (SMILES): CC1=CC(=O)c2ccccc2C1=O [Vitamin K3]

- % of control metabolism (SD, n = 3), 7-HFC glucuronidation ([1]; inhibitor 500 μM): 96 (1) %
Structure (SMILES): CCCCCCCCCCCCCCCC(=O)Oc1ccc([N+](=O)[O-])cc1 [p-Nitrophenyl palmitate]

- % of control metabolism (SD, n = 3), 7-HFC glucuronidation ([1]; inhibitor 500 μM): 70 (3) %
Structure (SMILES): CCCCCCCCCCCCCCCC(=O)Oc1cccc2ccccc12 [α-Naphthyl palmitate]

Second part, the compound before the results:

Structure (SMILES): COc1c2ccoc2cc2oc(=O)ccc12 [5-Methoxypsoralen (bergapten)]
- % of control metabolism (SD, n = 3), 7-HFC glucuronidation ([1]; inhibitor 500 μM): 97 (1), % and 92 (1) %

Structure (SMILES): Cc1cn([C@H]2C[C@H](N=[N+]=[N-])[C@@H](CO[C@@H]3O[C@H](C(=O)O)[C@@H](O)[C@H](O)[C@H]3O)O2)c(=O)[nH]c1=O [AZT glucuronide]
- % of control metabolism (SD, n = 3), 7-HFC glucuronidation ([1]; inhibitor 500 μM): 103 (1) %

Structure (SMILES): O=C1O[C@H]([C@@H](O)CO)C(O)=C1O [Ascorbic acid]
- % of control metabolism (SD, n = 3), 7-HFC glucuronidation ([1]; inhibitor 500 μM): 99 (1) %

Structure (SMILES): CCCCCCCCCCCCCCCC(=O)OC[C@H](O)[C@H]1OC(=O)C(O)=C1O [Ascorbyl palmitate]
- IC50 [1]: 200 µM
- percentage of control metabolism, 7-HFC glucuronidation ([1]; inhibitor 100 μM): 64 (1) %
- % of control metabolism (SD, n = 3), 7-HFC glucuronidation ([1]; inhibitor 100 μM): 64 (1) %
- percentage of control metabolism, 7-HFC glucuronidation ([1]; inhibitor 200 μM): 51 (1) %
- % of control metabolism (SD, n = 3), 7-HFC glucuronidation ([1]; inhibitor 200 μM): 51 (1) %
- percentage of control metabolism, 7-HFC glucuronidation ([1]; inhibitor 500 μM): 11 (3) % and 17 (0) %
- % of control metabolism (SD, n = 3), 7-HFC glucuronidation ([1]; inhibitor 500 μM): 11 (3), % and 17 (0) %
- % of control metabolism (SD, n = 3), raloxifene glucuronide G1 [2, 5]: 57 (2) %
- % of control metabolism (SD, n = 3), raloxifene glucuronide G1 [2, 3]: 26 (1) %
- % of control metabolism (SD, n = 3), raloxifene glucuronide G2 [2, 6]: 71 (4) %
- % of control metabolism (SD, n = 3), raloxifene glucuronide G2 [2, 4]: 36 (5) %

Structure (SMILES): CCCCCCCCCCCCCCCCCC(=O)OC[C@H](O)[C@H]1OC(=O)C(O)=C1O [Ascorbyl stearate]
- % of control metabolism (SD, n = 3), 7-HFC glucuronidation ([1]; inhibitor 500 μM): 73 (2) %

Structure (SMILES): CCCCCCCCCCCCCCCC(=O)O[C@H]1CC[C@@]2(C)C(=CC[C@H]3[C@@H]4CC[C@H]([C@H](C)CCCC(C)C)[C@@]4(C)CC[C@@H]32)C1 [Cholesteryl palmitate]
- % of control metabolism (SD, n = 3), 7-HFC glucuronidation ([1]; inhibitor 500 μM): 100 (3) %

Structure (SMILES): CC(C)[C@@H]1CC[C@@H](C)C[C@H]1O[C@@H]1O[C@H](C(=O)O)[C@@H](O)[C@H](O)[C@H]1O [Menthol glucuronide]
- % of control metabolism (SD, n = 3), 7-HFC glucuronidation ([1]; inhibitor 500 μM): 94 (4) %
- % of control metabolism (SD, n = 3), raloxifene glucuronide G1 [2]: 91 (2) %
- % of control metabolism (SD, n = 3), raloxifene glucuronide G2 [2]: 84 (1) %

Structure (SMILES): COc1ccc2cc([C@H](C)C(=O)O)ccc2c1 [Naproxen Free Acid]
- % of control metabolism (SD, n = 3), 7-HFC glucuronidation ([1]; inhibitor 500 μM): 83 (1) %
- % of control metabolism (SD, n = 3), raloxifene glucuronide G1 [2]: 81 (3) %
- % of control metabolism (SD, n = 3), raloxifene glucuronide G2 [2]: 78 (2) %

Structure (SMILES): COc1ccc2cc([C@H](C)C(=O)[O-])ccc2c1.[Na+] [Naproxen Na salt]
- % of control metabolism (SD, n = 3), 7-HFC glucuronidation ([1]; inhibitor 500 μM): 82 (1) %

Structure (SMILES): CCCCCCCCCCCCCCCC(=O)O [Palmitic acid]
- % of control metabolism (SD, n = 3), 7-HFC glucuronidation ([1]; inhibitor 500 μM): 104 (2) %

Structure (SMILES): C=CC[C@@H]1/C=C(\C)C[C@H](C)C[C@H](OC)[C@H]2O[C@@](O)(C(=O)C(=O)N3CCCC[C@H]3C(=O)O[C@H](/C(C)=C/[C@@H]3CC[C@@H](O)[C@H](OC)C3)[C@H](C)[C@@H](O)CC1=O)[C@H](C)C[C@@H]2OC [Tacrolimus]
- % of control metabolism (SD, n = 3), 7-HFC glucuronidation ([1]; inhibitor 500 μM): 126 (4) %

Structure (SMILES): CCCCNC(=O)NS(=O)(=O)c1ccc(C)cc1 [Tolbutamide]
- % of control metabolism (SD, n = 3), 7-HFC glucuronidation ([1]; inhibitor 500 μM): 100 (0) %
- % of control metabolism (SD, n = 3), raloxifene glucuronide G1 [2]: 98 (7) %
- % of control metabolism (SD, n = 3), raloxifene glucuronide G2 [2]: 91 (2) %

Structure (SMILES): O=[N+]([O-])c1ccc(O)cc1 [p-Nitrophenol, reference compound]
- % of control metabolism (SD, n = 3), 7-HFC glucuronidation ([1]; inhibitor 500 μM): 62 (1) %
- % of control metabolism, raloxifene G1 [2]: 37 (0), 42 (2) % and 49 (2), 51 (2) % and 63 (4), 66 (1) %
- % of control metabolism, raloxifene G2 [2]: 37 (0), 42 (2) % and 49 (2), 51 (2) % and 63 (4), 66 (1) %
